Reference: PMC12516390 (ACS Medicinal Chemistry Letters, 2025)
Read-outs that look alike come from different tables or passages of the source.

Legend:
recombinant M^Pro = recombinant M^Pro (Severe acute respiratory syndrome coronavirus 2, UniProt P0DTD1); assay: SARS-CoV-2 Mpro screening and IC50 determination (QS1 fluorogenic substrate, Drag assay); type: biochemical; details: for inhibition at 10 µM: read-out: M^Pro (%inh)@10μM
in vitro = details: African monkey
PL^Pro = PL^Pro (Severe acute respiratory syndrome coronavirus 2, UniProt P0DTD1); assay: SARS-CoV-2 PLpro screening (Ac-LRGG-ACC substrate); type: biochemical; details: read-out: PL^Pro (%inh)@10μM
[1] = M^Pro IC50 (μM), recombinant M^Pro, 20 μM QS1 substrate, Table 3
[2] = recombinant M^Pro, 20 μM QS1 substrate, Table 3, read-out: M^Pro IC50
[3] = recombinant M^Pro, 20 μM QS1 (Ac-Abu-Tle-Leu-Gln-ACC) substrate, Table 1, read-out: M^Pro IC50
[4] = recombinant M^Pro, 20 μM QS1 substrate, Table 5, read-out: IC50 (μM) M^Pro

Compound	inhibition at 10 µM (recombinant M^Pro) [%]	IC50 (recombinant M^Pro; [3]) [µM]	inhibition at 10 µM (PL^Pro) [%]	further results
CC(C)C[C@H](NC(=O)c1ccc(-c2cccc3nn(C)cc23)cc1Cl)C(=O)N[C@H](C#N)C[C@@H]1CCNC1=O [18p]	–	–	–	IC50 (recombinant M^Pro; [1]): 0.068 µM; CC50 (in vitro): > 100 µM
CC(C)C[C@H](NC(=O)c1ccc(-c2ccc3c(cnn3C)c2)cc1Cl)C(=O)N[C@H](C#N)C[C@@H]1CCNC1=O [18o]	–	–	–	IC50 (recombinant M^Pro; [1]): 0.052 µM; CC50 (in vitro): 83.5 µM
COc1ccc(-c2ccc(C(=O)N[C@@H](CC(C)C)C(=O)N[C@H](C#N)C[C@@H]3CCNC3=O)c(F)c2F)cc1 [18e]	–	–	–	IC50 (recombinant M^Pro; [2]): 0.155 µM
COc1ccc(-c2ccc(C(=O)N[C@@H](CC(C)C)C(=O)N[C@H](C#N)C[C@@H]3CCNC3=O)cc2)cn1 [6k]	> 95	1.21	< 50	IC50 (recombinant M^Pro; read-out: M^Pro IC50): > 1 µM
CC(C)C[C@@H](NC(=O)c1ccc(-c2ccc(F)nc2)cc1)C(=O)N[C@H](C#N)C[C@@H]1CCNC1=O [12c]	> 95	5.83	< 50	–
CCOc1cccc(-c2ccc(C(=O)N[C@@H](CC(C)C)C(=O)N[C@H](C#N)C[C@@H]3CCNC3=O)cc2)c1 [6i]	> 95	0.798	< 50	–
CC(C)C[C@@H](NC(=O)c1ccc(-c2ccc(Cl)cc2)cc1)C(=O)N[C@H](C#N)C[C@@H]1CCNC1=O [12a]	> 95	3.24	< 50	–
COc1cccc(-c2ccc(C(=O)N[C@@H](CC(C)C)C(=O)N[C@H](C#N)C[C@@H]3CCNC3=O)c(C(F)(F)F)c2)c1 [18l]	–	–	–	IC50 (recombinant M^Pro; [2]): 0.115 µM
COc1cccc(-c2cc(F)c(C(=O)N[C@@H](CC(C)C)C(=O)N[C@H](C#N)C[C@@H]3CCNC3=O)cc2F)c1 [18f]	–	–	–	IC50 (recombinant M^Pro; [2]): 0.245 µM
COc1ccc(-c2ccc(C(=O)N[C@@H](CC(C)C)C(=O)N[C@H](C#N)C[C@@H]3CCNC3=O)c(C)c2)cc1 [18k]	–	–	–	IC50 (recombinant M^Pro; [1]): 0.085 µM; CC50 (in vitro): > 100 µM
COc1ccc(-c2ccc(C(=O)N[C@@H](CC3CCCCC3)C(=O)N[C@H](C#N)C[C@@H]3CCNC3=O)cc2)cc1OC [12m]	< 95	2.11	< 50	–
COc1ccc(-c2ccc(C(=O)NC3(C(=O)N[C@H](C#N)C[C@@H]4CCNC4=O)CCCCC3)cc2)cc1 [12p]	> 95	–	< 50	–
COc1ccc(-c2ccc(C(=O)N3C[C@@H]4CCC[C@@H]4[C@H]3C(=O)N[C@H](C#N)C[C@@H]3CCNC3=O)cc2)cc1 [22h]	–	–	–	IC50 (recombinant M^Pro; [4]): 2.99 µM
COc1cccc(-c2ccc(C(=O)N3C[C@H]4[C@@H]([C@H]3C(=O)N[C@H](C#N)C[C@@H]3CCNC3=O)C4(C)C)cc2)c1 [22a]	–	–	–	IC50 (recombinant M^Pro; [4]): 1.02 µM
CC(C)C[C@H](NC(=O)c1ccc(-c2ccc3cnn(C)c3c2)cc1)C(=O)N[C@H](C#N)C[C@@H]1CCNC1=O [6n]	> 95	0.653	< 50	–
COc1ccc(-c2ccc(C(=O)N[C@@H](CC(C)C)C(=O)N[C@H](C#N)C[C@@H]3CCNC3=O)cc2F)cc1 [18i]	–	–	–	IC50 (recombinant M^Pro; [2]): 0.661 µM
COc1ccc(-c2ccc(C(=O)N3C[C@H]4[C@@H]([C@H]3C(=O)N[C@H](C#N)C[C@@H]3CCNC3=O)C4(C)C)c(F)c2)cc1 [22d]	–	–	–	IC50 (recombinant M^Pro; [4]): 0.394 µM
CC(C)C[C@@H](NC(=O)c1ccc(-c2ccc(F)cc2)cc1)C(=O)N[C@H](C#N)C[C@@H]1CCNC1=O [12b]	> 95	4.03	< 50	–
CC(C)C[C@H](NC(=O)c1ccc(-c2ccc3c(cnn3C)c2)cc1F)C(=O)N[C@H](C#N)C[C@@H]1CCNC1=O [18c]	–	–	–	IC50 (recombinant M^Pro; [1]): 0.307 µM; CC50 (in vitro): > 100 µM
COc1ccc(-c2ccc(C(=O)N[C@@H](CC(C)C)C(=O)N[C@H](C#N)C[C@@H]3CCNC3=O)c(C(F)(F)F)c2)cc1 [18m]	–	–	–	IC50 (recombinant M^Pro; [1]): 0.096 µM; CC50 (in vitro): 70.6 µM
COc1cccc(-c2ccc(C(=O)N[C@@H](CC(C)C)C(=O)N[C@H](C#N)C[C@@H]3CCNC3=O)c(C)c2)c1 [18j]	–	–	–	IC50 (recombinant M^Pro; [2]): 0.163 µM
COc1ccc(-c2ccc(C(=O)N3C[C@H]4[C@@H]([C@H]3C(=O)N[C@H](C#N)C[C@@H]3CCNC3=O)C4(C)C)cc2)cc1 [22b]	–	–	–	IC50 (recombinant M^Pro; [4]): 1.13 µM
CC(C)C[C@@H](NC(=O)c1ccc(Br)cc1)C(=O)N[C@H](C#N)C[C@@H]1CCNC1=O [11b]	< 95	–	< 50	–
CC(C)C[C@H](NC(=O)c1ccc(-c2cncc(Cl)c2)cc1)C(=O)N[C@H](C#N)C[C@@H]1CCNC1=O [6h]	> 95	1.3	< 50	IC50 (recombinant M^Pro; read-out: M^Pro IC50): > 1 µM
COc1cccc(-c2ccc(C(=O)N3C[C@@H]4CCC[C@@H]4[C@H]3C(=O)N[C@H](C#N)C[C@@H]3CCNC3=O)c(F)c2)c1 [22i]	–	–	–	IC50 (recombinant M^Pro; [4]): 1.91 µM
